The source of these data is article PMC9697446 (International Journal of Molecular Sciences, 2022).

What is called IC50 is the midpoint of a concentration-inhibition curve.

Experiment [1] deals with T1, equine serum BChE (Equus caballus, UniProt P81908).
T1 construct: the equine serum BChE, and the porcine liver CES; purchased Sigma-Aldrich; host or cells: equine serum
The experiment in a line: biochemical. The following applies: IC50 ± SEM, n = 3. How it is done:
(§1) The esterase profile was estimated using the human erythrocyteAChE, the equine serum BChE, and the porcine liver CES.
(§2) Human erythrocyte AChE, equine serum BChE, porcine liver CES, acetylthiocholine iodide (ATCh), butyrylthiocholine iodide (BTCh), 5,5′-dithio-bis-(2-nitrobenzoic acid) (DTNB), 4-nitrophenol acetate (4-NPA), and BNPP were purchased from Sigma-Aldrich (St. Louis, MO, USA).
(§3) AChE and BChE activities were measured via the Ellman method. The assay solution consisted of 0.1 M K/Na phosphate buffer pH 7.5, 25 °C with the addition of 0.33 mM DTNB, 0.02 unit/mL of AChE or BChE and 1 mM of substrate (ATCh or BTCh, respectively). The assays were carried out with a reagent blank containing all components (except AChE orBChE) in order to account for the non-enzymatic hydrolysis of the substrate. In addition, an enzyme blank was included that contained all components except substrate to account for non-substrate sulfhydryl groups.
(§4) The test compounds were dissolved in DMSO, and the incubation mixture contained 2% (v/v) of the solvent. Enzyme inhibition was first assessed at a single concentration of 20 µM for each compound after a 5 min incubation at 25 °C in three separate experiments. […] The test compounds were added to the assay solution and preincubated at 25 °C with the enzymes for 5 min, followed by the addition of substrate. A parallel control was made for the assay solution with no inhibitor. Measurements were performed with a FLUOStar Optima microplate reader (BMG Labtech, Ortenberg, Germany). Each experiment was performed in triplicate. The results were expressed as the mean ± SEM. The reaction rates in the presence and absence of the inhibitor were compared, and the percent of residual enzyme activity due to the presence of test compounds was calculated.

The target in experiment [2] is T2, human erythrocyte AChE (Homo sapiens, UniProt P22303).
T2 construct: The esterase profile was estimated using the human erythrocyteAChE; purchased Sigma-Aldrich; host or cells: human erythrocytes
The experiment in a line: biochemical. The following applies: IC50 ± SEM, n = 3. As to the method:
as §1, §2, §3, §4

The subject of experiment [3] is porcine liver CES. Description: CES inhibition (4-nitrophenyl acetate hydrolysis).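 Further: values are percent inhibition of CES activity not residual activity.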 Conditions: ± SEM, n = 3. Format: biochemical. As to the method:
as §1, §2
The assay solution consisted of 0.1 M K/Na phosphate buffer pH 8.0, 25 °C, with the addition of 1 mM 4-nitrophenyl acetate and 0.02 unit/mL of CES. The assays were carried out with a blank containing all components, except CES.
as §4

Experiment [4] has as its target T3, EeAChE (Electrophorus electricus, UniProt O42275).
T3 construct: purchased Sigma-Aldrich type VI-S
The experiment in a line: biochemical. Conditions: means ± SEM (n = 3); read-out: EeAChE Inhibition, IC50. How it is done: We selected AChE from electric eels (Electrophorus electricus) for consistency with our other reports and because of its purity, specific activity, and lower cost compared to human AChE [64].
as §3, §4
(§5) PIand donepezil were purchased from Sigma-Aldrich. […] As the source of the enzyme, electric eel (Elecrophorus electricus) AChE (EeAChE, type VI-S, lyophilized powder, Sigma-Aldrich, Saint Louis, MO, USA) was used. The applicability of this enzyme was shown earlier

In experiment [5] the target is T4, EeAChE PAS (Electrophorus electricus, UniProt O42275).
T4 construct: purchased Sigma-Aldrich type VI-S
Description: biochemical. The format is binding. Conditions: EeAChE 7 µM, PI 8 µM, means ± SEM (n = 3); for inhibition at 3 µM: compound 3 µM, read-out: PI Displacement, 3 µM; for inhibition at 20 µM: compound 20 µM, read-out: PI Displacement, 20 µM. How it is done: as §5
To determine the percentage of displacement of PI from the EeAChE PAS, EeAChE (with a final concentration of 7 μM) was incubated with the test compound at a concentration of 3 and 20 μM in 1 mM Tris-HCl buffer pH 8.0, 25 °C for 15 min. Next, PIsolution (with a final concentration of 8 μM) was added, the samples were incubated for 15 min, and the fluorescence spectrum (530 nm (exc.) and 600 nm (emiss.)) was taken. Donepezil and decamethonium were used as reference compounds. The blank contained PI of the same concentration in 1 mM Tris-HCl buffer pH 8.0. The measurements were carried out in triplicate on a FLUOStar Optima microplate reader).
The percentage of displacement of PIfrom the peripheral anionic site of AChE was calculated using the following formula:% Displacement = 100 − (IFAChE+Propidium+inhibitor/IFAChE+Propidium) × 100,(1) where IFAChE+Propidium is the fluorescence intensity of the propidium associated with AChE in the absence of the test compound (taken as 100%) and IFAChE+Propidium+inhibitor is the fluorescence intensity of the propidium associated with AChE in the presence of the test compound.

Experiment [6] can be described thus: ABTS radical cation scavenging assay. Conditions: 1 h incubation, means ± SEM (n = 3); for IC50: 50% reduction of ABTS radical; for ABTS Scavenging Activity, TEAC Value: Trolox equivalent antioxidant capacity. As to the method: The ABTS assay is based on the direct binding of a model ABTS radical cation (2,2′-azino-bis-(3-ethylbenzothiazoline-6-sulfonate), ABTS^•+) by antioxidants. The measurements were performed as previously described in detail.
The radical scavenging activity was expressed as TEAC values (Trolox equivalent antioxidant capacity) and determined as the ratio between the slopes obtained from the linear correlation of the ABTS radical absorbance with the concentrations of the test compounds and Trolox.
The radical scavenging activity of the compounds was assessed using an ABTS radical decolorization assay. The procedure followed the reported protocol with minor modifications. ABTS (2,2ʹ-azino-bis-(3-ethylbenzothiazoline-6-sulfonic acid) diammonium salt) was purchased from TCI (Tokyo, Japan), while potassium persulfate (di-potassium peroxodisulfate), Trolox (6-hydroxy-2,5,7,8-tetramethylchroman-2-carboxylic acid), catechol, and DMSO were received from Sigma-Aldrich Chemical Co. (St. Louis, MO, USA). The ethanol was HPLC grade. Aqueous solutions were prepared using deionized water.
Trolox was used as the standard reference compound. Catechol was used as the positive control. All test and reference compounds were dissolved in DMSO. The final concentration of DMSO in the reaction mixture was 4% (v/v).
The solution of ABTS radical cation (ABTS^•+) was produced by mixing a 7 mM ABTS stock solution with a 2.45 mM aqueous solution of potassium persulfate in equal quantities and allowing them to react for 12–16 h at room temperature in the dark. At the time of activity determination, the ABTS^•+ solution was diluted with ethanol to adjust it to an absorbance value of about 0.80 ± 0.05 at 734 nm. A fresh working solution of ABTS^•+ was prepared for each assay.
The radical scavenging capacity of the compounds was analyzed by mixing 10 μL of test compound with 240 μL of ABTS^•+ working solution. The reduction in absorbance was measured spectrophotometrically at 734 nm using an xMark microplate UV/VIS spectrophotometer (Bio-Rad, Hercules, CA, USA). The reaction was monitored for an hour at 10 min intervals. Data were given for 1 h of incubation of compounds with ABTS^•+. EtOH blanks were run in each assay. The results were obtained from three replicates of each sample and three independent experiments.
The antioxidant capacity as a Trolox equivalent (TEAC values) was determined as the ratio between the slopes obtained from the linear correlation of concentrations of test compounds and Trolox with absorbance of ABTS radical.

Experiment [7] can be described thus: Oxygen radical absorbance capacity assay (ORAC-FL). The following applies: Trolox equivalent, Trolox = 1; means ± SEM (n = 3).
Description: The method is based on the measurement of the fluorescence intensity characterizing the degree of destruction of the fluorescence probe under the action of peroxyl radicals.
The peroxyl radical scavenging capacity of the test compounds was characterized in terms of the Trolox equivalent (TE), which is equal to the ratio of the Trolox concentration to the concentration of a test compound when they show equal fluorescence intensities in the assay. The peroxyl radical scavenging capacity of Trolox was set as 1 [67, 68].
2,2´-Azobis(amidinopropane) dihydrochloride (AAPH), (±)-6-hydroxy-2,5,7,8-tetramethylchroman-2-carboxylic acid (Trolox), and fluorescein (FL) were purchased from Sigma-Aldrich. The reaction was carried out at 37 °C in 75 mM K,Na phosphate buffer (pH 7.4), and the final reaction mixture was 200 µL. The test compounds and the Trolox standard were dissolved in DMSO to 10 mM and further diluted in a 75 mM K,Na phosphate buffer (pH 7.4). The final concentrations were 0.1–1 µM for the test compounds and 1–6 µM for the Trolox. The blank was composed of 20 µL of a 75 mM K,Na phosphate buffer (pH 7.4) containing 20% (v/v) DMSO, 120 µL of FL and 60 µL of AAPH, and it was added in each assay. The antioxidant (20 µL) and FL (120 µL, final concentration: 70 nM) solutions were placed in a black 96-well microplate and were preincubated for 15 min at 37 °C. A solution of AAPH (60 µL, final concentration: 12 mM) was then added rapidly using a multichannel pipette. The microplate was immediately placed in the reader, and the fluorescence was recorded every minute for 100 min. The microplate was automatically shaken prior to each reading. The Trolox standard curve was also obtained in each assay. All reactions were carried out in triplicate, and at least three different assays were performed for each sample.
The antioxidant curves (fluorescence vs. time) were first normalized to the curve of the blank (without the antioxidant) corresponding to the same assay, and the area under the fluorescence decay curve (AUC) was calculated. The net AUC corresponding to a sample was calculated by subtracting the AUC corresponding to the blank. Regression equations were calculated by plotting the net AUC against the antioxidant concentration. The ORAC Tolox equivalent value (TE) was obtained by dividing the slope of the latter curve by the slope of the Trolox curve obtained in the same assay. The ability of Trolox to scavenge the peroxyl radical was equal to 1 [64, 65]. […] The data are expressed as means ± SEM.

T4 sequence (O42275 24-633): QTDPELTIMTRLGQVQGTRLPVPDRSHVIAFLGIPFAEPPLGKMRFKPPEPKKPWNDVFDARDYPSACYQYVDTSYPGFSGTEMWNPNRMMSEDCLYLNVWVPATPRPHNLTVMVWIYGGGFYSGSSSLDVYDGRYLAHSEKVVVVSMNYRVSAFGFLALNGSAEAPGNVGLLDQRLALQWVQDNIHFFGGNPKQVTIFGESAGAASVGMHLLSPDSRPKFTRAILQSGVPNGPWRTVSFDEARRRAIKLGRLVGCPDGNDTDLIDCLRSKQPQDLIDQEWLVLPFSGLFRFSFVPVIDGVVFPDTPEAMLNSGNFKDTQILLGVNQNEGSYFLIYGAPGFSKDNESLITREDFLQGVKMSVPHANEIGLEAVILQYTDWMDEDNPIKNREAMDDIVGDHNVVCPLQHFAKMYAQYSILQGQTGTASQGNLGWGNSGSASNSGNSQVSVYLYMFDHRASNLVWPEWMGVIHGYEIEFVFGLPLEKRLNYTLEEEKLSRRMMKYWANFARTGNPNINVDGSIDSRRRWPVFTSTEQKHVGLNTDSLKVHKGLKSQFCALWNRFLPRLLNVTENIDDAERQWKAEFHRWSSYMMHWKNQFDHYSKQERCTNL
T3 sequence (O42275 24-633): as above
T1 sequence (P81908 whole entry): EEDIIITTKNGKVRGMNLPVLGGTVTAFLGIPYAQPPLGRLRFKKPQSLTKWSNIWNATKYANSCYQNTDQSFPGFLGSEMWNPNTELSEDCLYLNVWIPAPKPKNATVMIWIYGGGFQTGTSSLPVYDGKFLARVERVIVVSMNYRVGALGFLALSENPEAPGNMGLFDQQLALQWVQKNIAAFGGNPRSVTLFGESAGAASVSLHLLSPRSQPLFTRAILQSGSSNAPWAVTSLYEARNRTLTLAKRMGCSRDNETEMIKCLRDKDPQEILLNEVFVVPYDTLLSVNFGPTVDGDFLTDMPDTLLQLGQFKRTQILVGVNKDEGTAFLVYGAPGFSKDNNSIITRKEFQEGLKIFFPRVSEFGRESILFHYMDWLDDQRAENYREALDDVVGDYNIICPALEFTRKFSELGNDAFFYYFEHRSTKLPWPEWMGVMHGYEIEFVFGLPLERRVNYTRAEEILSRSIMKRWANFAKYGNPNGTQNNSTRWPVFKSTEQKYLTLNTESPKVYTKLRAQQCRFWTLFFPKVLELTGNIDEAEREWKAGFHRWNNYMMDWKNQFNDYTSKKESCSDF
T2 sequence (P22303 32-617 isoform P22303-2 limits assumed): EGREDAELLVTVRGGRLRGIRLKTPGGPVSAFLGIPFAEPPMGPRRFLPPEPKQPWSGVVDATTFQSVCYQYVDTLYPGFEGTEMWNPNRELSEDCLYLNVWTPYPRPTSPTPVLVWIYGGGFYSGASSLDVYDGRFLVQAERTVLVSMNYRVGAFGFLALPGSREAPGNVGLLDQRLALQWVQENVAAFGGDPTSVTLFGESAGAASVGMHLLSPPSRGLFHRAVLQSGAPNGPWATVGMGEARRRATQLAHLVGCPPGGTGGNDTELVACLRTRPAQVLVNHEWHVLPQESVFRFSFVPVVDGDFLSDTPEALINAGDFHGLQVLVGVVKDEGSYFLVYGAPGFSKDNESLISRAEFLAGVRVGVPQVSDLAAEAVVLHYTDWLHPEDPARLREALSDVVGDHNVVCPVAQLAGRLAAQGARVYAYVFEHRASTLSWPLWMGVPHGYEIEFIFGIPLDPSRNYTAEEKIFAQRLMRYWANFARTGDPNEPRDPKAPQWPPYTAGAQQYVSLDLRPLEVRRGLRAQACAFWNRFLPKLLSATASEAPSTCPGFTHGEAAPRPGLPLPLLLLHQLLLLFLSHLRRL

In the case of `CC1CCc2c(c3cc(C(F)(F)F)ccc3n2CCC(=O)N2c3ccc(N(C)C)cc3Sc3cc(N(C)C)ccc32)C1` (stereo not shown) [Compound 4g], the IC50 came to 20.3 ± 0.21 µM in experiment [1], 3.56 ± 0.09 µM in experiment [2], 0.8 ± 0.05 µM in experiment [4] and 30.8 ± 2.9 µM in experiment [6]. Moreover, in experiment [3], the “CES inhibition at 20 µM” value stood at 1.4 ± 0.2%. In experiment [5], the inhibition at 3 µM stood at 20.9 ± 1.3%. Further, the inhibition at 20 µM in experiment [5] came out at 32.8 ± 0.7%. The “ABTS Scavenging Activity, TEAC Value” in experiment [6] amounted to 0.70 ± 0.04. Moreover, the “ORAC, TE Value” in experiment [7] came out at 6.5 ± 0.1.
For `CN(C)c1ccc2c(c1)Sc1cc(N(C)C)ccc1N2C(=O)CCn1c2c(c3cc(OC(F)(F)F)ccc31)CCCCC2` [Compound 4l], the IC50 in experiment [1] was 42.2 ± 2.93 µM; in experiment [2] it was 15 ± 1.12 µM; in experiment [4], 3.4 ± 0.21 µM; in experiment [6], 20.7 ± 1.7 µM. Further, in experiment [3], the “CES inhibition at 20 µM” value came to 7.6 ± 0.8%. In addition, in experiment [5], the inhibition at 3 µM was found to be 14.9 ± 0.1%. The inhibition at 20 µM in experiment [5] was 17 ± 1.2%. Besides, the “ABTS Scavenging Activity, TEAC Value” in experiment [6] stood at 0.98 ± 0.09. Besides, the “ORAC, TE Value” in experiment [7] is 8.4 ± 0.8.
In the case of `c1ccc2c(c1)[nH]c1ccccc12` [carbazole, reference compound], the “CES inhibition at 20 µM” value in experiment [3] came out at 9.4 ± 1.0%.
As for `Cc1c(C)c2c(c(C)c1O)CCC(C)(C(=O)O)O2` (stereo not shown) [Trolox, 6-hydroxy-2,5,7,8-tetramethylchroman-2-carboxylic acid, reference compound], in experiment [6], it took 20.4 ± 1.7 µM to reach half-maximal inhibition (IC50) and the “ABTS Scavenging Activity, TEAC Value” is given as 1.00. Also, the “ORAC, TE Value” in experiment [7] worked out at 1.00.
As for `Oc1ccccc1O` [Catechol, catechol, reference compound], in experiment [6], the IC50 was 16.7 ± 1.2 µM and the “ABTS Scavenging Activity, TEAC Value” was 1.20 ± 0.11. In addition, the “ORAC, TE Value” in experiment [7] worked out at 6.6 ± 0.2.
